According to article PMC9950073, “Alleviation of arthritis through prevention of neutrophil extracellular traps by an orally available inhibitor of protein arginine deiminase 4” (Scientific Reports, 2023):

What was measured:
[1] = target: T1, human recombinant PAD3 (Homo sapiens, UniProt Q9ULW8); experiment: PAD3 selectivity biochemical assay measuring ammonia release; conditions: 10 semi-log concentrations, highest concentration tested 30 µM
T1 construct: purchased Cayman Chemicals 10786
T1 sequence (Q9ULW8 1-664): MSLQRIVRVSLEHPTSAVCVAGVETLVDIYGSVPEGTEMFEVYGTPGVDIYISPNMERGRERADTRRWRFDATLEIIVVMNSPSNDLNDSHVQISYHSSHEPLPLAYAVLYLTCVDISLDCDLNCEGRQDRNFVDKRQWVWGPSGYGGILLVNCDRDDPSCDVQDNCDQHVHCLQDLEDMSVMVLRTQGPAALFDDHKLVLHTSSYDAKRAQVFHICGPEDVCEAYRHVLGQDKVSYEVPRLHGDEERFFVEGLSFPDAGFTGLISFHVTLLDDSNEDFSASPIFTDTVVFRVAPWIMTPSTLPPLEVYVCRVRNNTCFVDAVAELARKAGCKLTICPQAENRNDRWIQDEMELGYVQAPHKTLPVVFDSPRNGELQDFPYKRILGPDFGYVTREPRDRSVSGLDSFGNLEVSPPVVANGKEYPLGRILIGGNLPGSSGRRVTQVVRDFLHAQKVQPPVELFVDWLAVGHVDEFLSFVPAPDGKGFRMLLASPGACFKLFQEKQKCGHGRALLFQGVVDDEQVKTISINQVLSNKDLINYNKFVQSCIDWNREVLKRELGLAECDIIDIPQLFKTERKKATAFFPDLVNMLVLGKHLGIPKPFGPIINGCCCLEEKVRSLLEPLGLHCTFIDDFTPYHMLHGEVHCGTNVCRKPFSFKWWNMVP

[2] = Mice PK study; assay type: in vivo, Balb/c mice
Excerpt: Institutional Animal Ethical Committee (IAEC) of Jubilant Biosys Ltd (IAEC/JDC/2019/188R (for Mice) nominated by CPCSEA (Committee for the Purpose of Control and Supervision of Experiments on Animals) approved the mice pharmacokinetic experiments. Male Balb/c mice (~ 6–8 weeks old with body weight range of 22–25 g) were procured from Vivo Biotech, Hyderabad, India. Rodent feed (manufactured by Altromin Spezialfutter GmbH & Co. KG., ImSeelenkamp20, D-32791 Lage), and water was provided ad libitum. Intravenous (IV) and oral (PO) pharmacokinetics studies were done at doses of 2 mg/Kg and 10 mg/Kg, respectively at a dose volume of 10 mL/Kg. Sparse sampling was done with three mice at each time point. Blood (~ 100 µL) was collected from retro-orbital plexus at 0.12, 0.25, 0.5, 1, 2, 4, 8 and 24 h for IV and 0.25, 0.5, 1, 2, 4, 8, 10 and 24 h for PO route, in tubes containing K2 and EDTA as anticoagulant. It was centrifuged for 5 min at 10,000 rpm in a refrigerated centrifuge (Biofuge, Heraeus, Germany) maintained at 4 °C for plasma separation. For oral dosing of JBI-589 suspension formulation was prepared using 0.5% Tween-80 and 0.5% methyl cellulose (0.5% in water), while for IV dosing 5% DMSO, 5% Solutol:ethanol (1:1, v/v) and 90% normal saline was used.

[3] = Microsomal stability, MLM; assay type: in vitro ADME, mouse; conditions: 1 µM, liver microsomes 0.5 mg/mL; one range given for HLM/MLM/DLM/RLM
Procedure: Microsomal stability: Liver microsomes (0.5 mg/mL) from different species were incubated with JBI-589 (1 µM) with or without NADPH (1 mM) at 37 °C for 30 min in potassium phosphate buffer (pH 7.4) and then reaction was stopped with quenching solution (0.5% Formic acid in internal standard (IS) containing ACN). Resulting samples were centrifuged and supernatant was taken for LC–MS/MS analysis. Percent metabolism was calculated as follows: % Metabolized: [1 − (test area ratio/control area ratio)] *100.

[4] = target: T2, CYP1A2 (Homo sapiens, UniProt P05177); experiment: CYP inhibition in human liver microsome, CYP1A2; assay type: in vitro ADME
T2 construct: from tissue; host or cells: human liver microsomes
T2 sequence (P05177 1-516): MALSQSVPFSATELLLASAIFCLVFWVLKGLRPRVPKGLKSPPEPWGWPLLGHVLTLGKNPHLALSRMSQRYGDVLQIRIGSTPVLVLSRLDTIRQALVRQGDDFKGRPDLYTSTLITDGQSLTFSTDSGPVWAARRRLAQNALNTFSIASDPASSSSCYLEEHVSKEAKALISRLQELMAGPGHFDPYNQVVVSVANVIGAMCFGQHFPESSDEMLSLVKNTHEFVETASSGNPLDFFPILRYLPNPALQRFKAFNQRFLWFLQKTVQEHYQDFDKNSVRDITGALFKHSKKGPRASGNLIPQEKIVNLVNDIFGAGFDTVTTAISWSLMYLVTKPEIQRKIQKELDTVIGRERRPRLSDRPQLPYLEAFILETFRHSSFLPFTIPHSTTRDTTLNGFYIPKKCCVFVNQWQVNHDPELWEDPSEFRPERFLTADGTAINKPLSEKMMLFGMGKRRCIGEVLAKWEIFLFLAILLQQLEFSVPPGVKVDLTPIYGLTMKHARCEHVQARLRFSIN
Procedure: CYP inhibition: Human liver microsome (0.1–0.5 mg/mL for various CYPs) and appropriate probe substrates (2.5–20 µM) were incubated in potassium phosphate buffer with or without JBI-589 for 5 min at 37 °C. The reaction was initiated by addition of NADPH (1 mM), incubated at 37 °C for 10 min and quenched (0.5% Formic acid in internal standard (IS) containing ACN). Samples were then centrifuged and taken for LC–MS/MS analysis. Percent change in metabolite formation for each substrate under above conditions using formula: Percent inhibition = [1 − (test area ratio/control area ratio)] *100.

[5] = Rat pharmacokinetics; conditions: in vivo, dose not given
Excerpt: Supplement 41598_2023_30246_MOESM1_ESM.docx, table 3: Supplementary Table S3. In vivo pharmacokinetic parameters of JBI-589 in mouse and rat | column: Dose; t1/2; Cmax; C0; AUC0-t; AUC0-∞; CL; F

[6] = male, Balb/c, mouse, plasma, 2 mg/kg, IV
[7] = male, Balb/c, mouse, plasma, 10 mg/kg, PO

## Cc1c(-c2cc3ccccc3n2Cc2ccc(F)cc2)nc2cc(C(=O)N3CCC[C@@H](N)C3)ccn12 [JBI-589, (R)-(3-aminopiperidin-1-yl)(2-(1-(4-fluorobenzyl)-1H-indol-2-yl)-3-methylimidazo[1,2-a]pyridin-7-yl)methanone]
[1]
  inhibitory activity against PAD3: did not have any inhibitory activity
[2]; 10 mg/kg, PO
  t1/2: 6.3 h
[2]; [6]
  AUC(0-inf): 4380 ng·h/mL
  AUC(0-t): 3960 ng·h/mL
  C0: 968 ng/mL
  Cmax: 828 ng/mL
  Vd: 5.24 L/kg
  clearance: 7.61 mL/min/kg
  half-life: 480 min
[2]; [7]
  AUC(0-inf): 13500 ng·h/mL
  AUC(0-t): 12500 ng·h/mL
  Cmax: 874 ng/mL
  bioavailability: 63%
[3]
  MLM % metabolized @ 30 min: 25-50%
[4]; human liver microsomes, 10 µM, human liver microsome, read-out: CYP1A2 inhibition (% inh @10 µM)
  inhibition at 10 min, 10 µM: < 50%
[4]; predicted from % inhibition, text says major CYPs tested
  IC50: > 10 µM
[5]; 2 mg/Kg, IV
  AUC(0-inf): 1390 ng·h/mL
  AUC(0-t): 1320 ng·h/mL
  C0: 451 ng/mL
  Cmax: 419 ng/mL
  Vd: 13.2 L/kg
  clearance: 24.3 mL/min/kg
  half-life: 379 min
[5]; 10 mg/Kg, PO
  AUC(0-inf): 3580 ng·h/mL
  AUC(0-t): 3390 ng·h/mL
  Cmax: 335 ng/mL
  bioavailability: 51.4%
  half-life: 336 min
